According to patent publication US20230339835A1, “2,3,5-TRIMETHYL-6-NONYLCYCLOHEXA-2,5-DIENE-1,4-DIONE FOR SUPPRESSING AND TREATING ALPHA-SYNUCLEINOPATHIES, TAUOPATHIES, AND OTHER DISORDERS” (PTC THERAPEUTICS, INC., priority 2018, published 2023):

Tests used:
[1] = test system: C57Bl/6 mice, MPTP-induced model of PD; test: Mouse MPTP model of Parkinson's Disease, open field locomotor assay; assay type: in vivo; details: 300 mg/kg PO QD Day -2 to Day 7, MPTP 60 mg/kg, Day 7
From the text: Animals. Species: Mouse. Strain: C57Bl/6. Source of Animals: Charles River. Age: 6 to 7 weeks. Sex: Male. Randomization: Animals were assigned randomly to treatment groups. Blinding of Study: Experimenters were blinded to the experimental treatments
Housing and Feeding. Acclimation/Conditioning: Not less than three days. Housing: Mice were housed on a 12 hr light/dark cycle (lights on 6:00 AM) No more than 4 mice per cage. Ventilated cage rack system. Diet: Standard rodent chow and water ad libitum.
Design Parameters. Route(s) of administration: PO. Dose Volume: PO: 5 mL/kg. Formulation(s): formulated by Melior according to directions from BioElectron. Vehicle-sesame oil (Spectrum Chemical, NF Catalog #SE130, CAS #8008-74-0). Dose Levels: 300 mg/kg. Dose Frequency: QD starting Day −2 (MPTP=Day 0) and until Day 7. Study duration: 11 days. Pretreatment time (up to 2 hrs): For Day 0 (MPTP Day): 30 min, Pretreatment time for Open Field Assay/Locomotor Activity (OFA/LMA) assay: 1 hr. Number of Groups: 3. Number of animals per group: 10. Total number of animals: 30 (in the study), 42 animals total (To ensure a proper power analysis of at least 10 animals/group, for all groups receiving MPTP, 4 additional animals were added to mitigate study impacts if there were MPTP-induced fatalities).
MPTP Treatment. MPTP was formulated in phosphate buffered saline and administered to mice three times at a dose of 20 mg/kg (1 mg/mL delivered at 20 mL/kg) at two-hour intervals (final dose of MPTP=60 mg/kg).
Locomotor activity. One day prior (baseline) and on Day 7 after MPTP administration (Day (−1) and Day 7), mice were monitored for various aspects of locomotor function using a fully automated open-field apparatus (Med-Associates, Inc). The apparatus consisted of a 10.75″×10.75″ arena enclosed in a sound-attenuated box, equipped with the fan and house light. […]
Data analysis. Data were averaged and are expressed as the average±SEM.
Data were analyzed by one-way ANOVA followed by a post-hoc tests. p-values of less than 0.05 were considered to be statistically significant from control.

[2] = Solvent screening for recrystallization (solubility of C9); assay type: physicochemical; details: for Hot to RT result: allowed to cool to RT; for RT to Cold result: cooled to 0° C.; for Hot Result: heated to approximately 45-50° C.
Experimental: 100 mg of C9 was placed in test tubes and solvent added and any change noted. Samples were then heated briefly with a heat gun (heating to approximately 45-50° C.), the solubility noted, allowed to cool to RT and solubility noted, then cooled to 0° C. and the solubility noted.

[3] = Light sensitivity of C9 solutions; assay type: physicochemical; details: room light wavelengths <450 nm
From the text: The compounds of this invention can be prepared from readily available starting materials using general methods and procedures that will be apparent to one skilled in the art in view of the disclosure provided herein. It will be appreciated that where typical or preferred process conditions (i.e., reaction temperatures, times, mole ratios of reactants, solvents, pressures, etc.) are given, other process conditions can also be used unless otherwise stated. Optimum reaction conditions may vary with the particular reactants or solvent used, but such conditions can be determined by one skilled in the art by routine optimization procedures. […] If amber lighting is not available, then appropriate controls should be used to minimize solutions to light exposure e.g. aluminum foil wrapping, amber glassware
Test solutions on 1 g scale determined that 75-85% IPA/water gave good solubility (˜10:1 vol:wt), fine crystals that were filterable and solutions that could be heated and cooled to produce a predictable melt/crystallization. […] A hot filtration was required as a brown, material formed during crystallization when the solution was left exposed to room light for >1 h. This was only observed with the solution was exposed to light. Recovery was 92.7% of fine needles and UHPLC analysis of the supernatant was 91% a/a vs 99% for the solid indicating the supernatant was removing impurities. […]

[4] = 70% IPA/H2O, approx conc. 100 mg/mL
[5] = 80% EtOH, approx conc. 50 mg/mL
[6] = 80% EtOH, approx conc. 100 mg/mL
[7] = 95% EtOH, approx conc. 100 mg/mL

In the case of `CCCCCCCCCC1=C(C)C(=O)C(C)=C(C)C1=O` [Compound C9, 2,3,5-trimethyl-6-nonylcyclohexa-2,5-diene-1,4-dione], the “open field locomotor assay (vertical time)” value ([1]; MPTP+Vehicle vs. MPTP+C9 p<0.001) is reported as “restored vertical time”, the “open field locomotor assay (vertical counts)” value ([1]; MPTP+Vehicle vs. MPTP+C9 p<0.01) is reported as “restored vertical counts” and the RT result [2, 4] is reported as “slightly”. The “Hot to RT result” value [2, 4] was “slightly soluble”, the “RT to Cold result” value [2, 4] was “slightly soluble-” and the “Hot Result” value [2, 4] was “mostly”. For the same molecule, the RT result [2, 5] was “partially”, the “Hot to RT result” value [2, 5] was “partially” and the “RT to Cold result” value [2, 5] was “slightly”. The “Hot Result” value [2, 5] was “melted”, the RT result [2, 6] was “partially” and the “Hot to RT result” value [2, 6] was “partially soluble”. The “RT to Cold result” value [2, 6] was “slightly soluble”, the “Hot Result” value [2, 6] was “melted” and the RT result [2, 7] was “partially”. The “Hot to RT result” value [2, 7] was “partially soluble”, the “RT to Cold result” value [2, 7] was “mostly insoluble” and the “Hot Result” value [2, 7] was “soluble”. For the same molecule, the RT result ([2]; EtOH, approx conc. 100 mg/mL) was “partially”, the “Hot to RT result” value ([2]; EtOH, approx conc. 100 mg/mL) was “slightly soluble” and the “RT to Cold result” value ([2]; EtOH, approx conc. 100 mg/mL) was “partially soluble-”. For the same molecule, the “Hot Result” value ([2]; EtOH, approx conc. 100 mg/mL) was “soluble”, the RT result ([2]; IPA, approx conc. 100 mg/mL) was “soluble” and the “Hot to RT result” value ([2]; IPA, approx conc. 100 mg/mL) was “soluble”. For the same molecule, the “RT to Cold result” value ([2]; IPA, approx conc. 100 mg/mL) was “partially soluble-”, the “Hot Result” value ([2]; IPA, approx conc. 100 mg/mL) was “soluble” and the RT result ([2]; MeCN, approx conc. 100 mg/mL) was “soluble”. For the same molecule, the “Hot to RT result” value ([2]; MeCN, approx conc. 100 mg/mL) was “soluble”, the “RT to Cold result” value ([2]; MeCN, approx conc. 100 mg/mL) was “mostly soluble-” and the “Hot Result” value ([2]; MeCN, approx conc. 100 mg/mL) was “soluble”. For the same molecule, the RT result ([2]; MeOH, approx conc. 100 mg/mL) was “slightly”, the “Hot to RT result” value ([2]; MeOH, approx conc. 100 mg/mL) was “slightly soluble” and the “RT to Cold result” value ([2]; MeOH, approx conc. 100 mg/mL) was “insoluble-long needles”. The “Hot Result” value ([2]; MeOH, approx conc. 100 mg/mL) was “soluble”, the RT result ([2]; THF, approx conc. 100 mg/mL) was “soluble” and the “Hot to RT result” value ([2]; THF, approx conc. 100 mg/mL) was “soluble”. For the same molecule, the “RT to Cold result” value ([2]; THF, approx conc. 100 mg/mL) was “soluble”, the “Hot Result” value ([2]; THF, approx conc. 100 mg/mL) was “soluble” and the RT result ([2]; water, approx conc. 10 mg/mL) was “insoluble”. For the same molecule, the “Hot to RT result” value ([2]; water, approx conc. 10 mg/mL) was “insoluble”, the “RT to Cold result” value ([2]; water, approx conc. 10 mg/mL) was “insoluble” and the “Hot Result” value ([2]; water, approx conc. 10 mg/mL) was “insoluble”. The “light sensitivity of solutions” value [3] was “light sensitive”.
